target: T1, Mer (Homo sapiens, UniProt Q12866); test: Mer autophosphorylation ELISA in transient transfected 293A cells; assay type: cell-based; conditions: cellular activity; MERTK-transfected 293A cells, phospho-Mer ELISA
T1 construct: host or cells: 293A cells (Thermo Fisher #R70507)
T1 sequence (Q12866 21-999): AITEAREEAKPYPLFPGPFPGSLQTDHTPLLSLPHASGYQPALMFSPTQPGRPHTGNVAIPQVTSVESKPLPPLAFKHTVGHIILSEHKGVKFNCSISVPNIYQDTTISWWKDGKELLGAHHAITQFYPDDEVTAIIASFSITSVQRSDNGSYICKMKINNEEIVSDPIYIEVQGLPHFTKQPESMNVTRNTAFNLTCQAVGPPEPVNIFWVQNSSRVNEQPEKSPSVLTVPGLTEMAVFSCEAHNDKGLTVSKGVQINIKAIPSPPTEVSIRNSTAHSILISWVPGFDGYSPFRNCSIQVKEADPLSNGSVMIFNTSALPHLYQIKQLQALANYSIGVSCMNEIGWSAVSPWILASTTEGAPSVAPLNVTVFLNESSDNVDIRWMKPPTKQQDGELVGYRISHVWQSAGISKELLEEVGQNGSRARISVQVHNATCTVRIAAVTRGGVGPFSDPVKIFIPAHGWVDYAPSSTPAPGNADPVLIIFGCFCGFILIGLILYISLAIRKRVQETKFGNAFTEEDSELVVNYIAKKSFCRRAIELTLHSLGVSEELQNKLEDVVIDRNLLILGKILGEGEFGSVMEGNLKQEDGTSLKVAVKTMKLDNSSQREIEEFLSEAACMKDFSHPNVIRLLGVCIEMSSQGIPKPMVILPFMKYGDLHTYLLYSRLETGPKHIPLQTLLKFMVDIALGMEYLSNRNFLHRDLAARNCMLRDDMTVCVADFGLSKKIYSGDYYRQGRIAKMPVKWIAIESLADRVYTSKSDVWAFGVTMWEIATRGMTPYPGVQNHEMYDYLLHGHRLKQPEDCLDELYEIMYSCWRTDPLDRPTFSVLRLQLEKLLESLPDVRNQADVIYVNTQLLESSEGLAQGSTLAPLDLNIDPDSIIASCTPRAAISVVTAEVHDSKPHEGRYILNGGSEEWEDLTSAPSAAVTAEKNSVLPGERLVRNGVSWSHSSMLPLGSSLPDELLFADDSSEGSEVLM
Procedure: 293A cells (Thermo Fisher #R70507) were seeded at 1.5×10^6 cells/well onto 100 mm dish (Greiner #664169), in DMEM (Thermo Fisher #11995-040) containing 10% FBS (Thermo Fisher #26140-079), 1% MEM NEAA (Thermo Fisher #11140-050), 1% GlutaMax (Thermo Fisher #35050-061), and 1% Penicillin Streptomycin (Thermo Fisher #15140-122). 293A cells were incubated at 37° C., 5% CO2 for 24 h and then transfected with 6 μg MERTK DNA (Genecopoeia #EX-Z8208-M02) using TransIT LT1 transfection reagent (Mirus-Bio #MIR2305). After 24 h incubation, the transfected 293A cells were seeded at 1×10^5 cells/well onto 96-well plates (Corning #3904) in DMEM growth medium overnight. Test compounds were serially diluted to produce an 8-point dose curve in fresh serum-free medium to a final concentration of 0.3% DMSO (vehicle) and added to the cells and incubated for 1 h. Cells were then immediately lysed with 150 μL of cold 1× lysis buffer [20 mM Tris, 137 mM sodium chloride, 2 mM EDTA, 10% glycerol, 1% NP-40 alternative, 1 mM activated sodium orthovanadate, 1 mM PefaBloc SC (Sigma-Aldrich #11429868001), protease/phosphatase inhibitor tablet (Thermo Fisher #A32959)]. Lysates were clarified by centrifugation and 50 μL/well added into the human phospho-Mer DuoSet IC ELISA (R&D Systems #DYC2579-2). Assay was performed according to manufacturer's instructions and sample phospho-Mer concentrations were extrapolated using human phospho-Mer control (R&D Systems #841793) as a standard. Positive control wells (100% activity) contained DMSO-treated cell lysates. Negative control wells (0% activity) contained reference inhibitor-treated cell lysates. IC50 values were calculated by nonlinear regression analysis using a 4-parameter logistic curve fit in ActivityBase XE (IDBS).

IC50 [nM]	Compound
10 to 100	CC(C)n1cc(-c2ccc3c(Oc4ccc(NC(=O)C5(C(=O)Nc6ccc(F)cc6)CC5)cc4)ccnc3c2)cn1 [Compound 21, 1-N′-(4-Fluorophenyl)-1-N-[4-[7-(1-propan-2-ylpyrazol-4-yl)quinolin-4-yl]oxyphenyl]cyclopropane-1,1-dicarboxamide]
10 to 100	O=C(Nc1ccc(F)cc1)C1(C(=O)Nc2ccc(Oc3ccnc4cc(-c5cnn6c5CCC6)ccc34)cc2)CC1 [Compound 29, 1-N-[4-[7-(5,6-Dihydro-4H-pyrrolo[1,2-b]pyrazol-3-yl)quinolin-4-yl]oxyphenyl]-1-N′-(4-fluorophenyl)cyclopropane-1,1-dicarboxamide]
10 to 100	O=C(Nc1ccc(F)cc1)C1(C(=O)Nc2ccc(Oc3ccnc4cc(-c5ccnc(F)c5)ccc34)cc2)CC1 [Compound 33, 1-N′-(4-Fluorophenyl)-1-N-[4-[7-(2-fluoropyridin-4-yl)quinolin-4-yl]oxyphenyl]cyclopropane-1,1-dicarboxamide]
10 to 100	N#Cc1cc(-c2ccc3c(Oc4ccc(NC(=O)C5(C(=O)Nc6ccc(F)cc6)CC5)cc4)ccnc3c2)ccn1 [Compound 34, 1-N-[4-[7-(2-Cyanopyridin-4-yl)quinolin-4-yl]oxyphenyl]-1-N′-(4-fluorophenyl)cyclopropane-1,1-dicarboxamide]
10 to 100	Nc1ccc(-c2ccc3c(Oc4ccc(NC(=O)C5(C(=O)Nc6ccc(F)cc6)CC5)cc4)ccnc3c2)cn1 [Compound 38, 1-N-[4-[7-(6-Aminopyridin-3-yl)quinolin-4-yl]oxyphenyl]-1-N′-(4-fluorophenyl)cyclopropane-1,1-dicarboxamide]
10 to 100	O=C(Nc1ccc(F)cc1)C1(C(=O)Nc2ccc(Oc3ccnc4cc(-c5cnc6[nH]ncc6c5)ccc34)cc2)CC1 [Compound 39, 1-N′-(4-Fluorophenyl)-1-N-[4-[7-(1H-pyrazolo[3,4-b]pyridin-5-yl)quinolin-4-yl]oxyphenyl]cyclopropane-1,1-dicarboxamide]
10 to 100	N#Cc1ccc(-c2ccc3c(Oc4ccc(NC(=O)C5(C(=O)Nc6ccc(F)cc6)CC5)cc4)ccnc3c2)cn1 [Compound 42, 1-N-[4-[7-(6-Cyanopyridin-3-yl)quinolin-4-yl]oxyphenyl]-1-N′-(4-fluorophenyl)cyclopropane-1,1-dicarboxamide]
10 to 100	O=C(Nc1ccc(F)cc1)C1(C(=O)Nc2ccc(Oc3ccnc4cc(-c5cncc(F)c5)ccc34)cc2)CC1 [Compound 45, 1-N′-(4-Fluorophenyl)-1-N-[4-[7-(5-fluoropyridin-3-yl)quinolin-4-yl]oxyphenyl]cyclopropane-1,1-dicarboxamide]
100 to 300	Cc1cncc(-c2ccc3c(Oc4ccc(NC(=O)C5(C(=O)Nc6ccc(F)cc6)CC5)cc4)ccnc3c2)c1 [Compound 46, 1-N′-(4-Fluorophenyl)-1-N-[4-[7-(5-methylpyridin-3-yl)quinolin-4-yl]oxyphenyl]cyclopropane-1,1-dicarboxamide]
10 to 100	COc1cncc(-c2ccc3c(Oc4ccc(NC(=O)C5(C(=O)Nc6ccc(F)cc6)CC5)cc4)ccnc3c2)c1 [Compound 47, 1-N′-(4-Fluorophenyl)-1-N-[4-[7-(5-methoxypyridin-3-yl)quinolin-4-yl]oxyphenyl]cyclopropane-1,1-dicarboxamide]
100 to 300	CC(C)Oc1ccc(-c2ccc3c(Oc4ccc(NC(=O)C5(C(=O)Nc6ccc(F)cc6)CC5)cc4)ccnc3c2)cn1 [Compound 50, 1-N′-(4-Fluorophenyl)-1-N-[4-[7-(6-propan-2-yloxypyridin-3-yl)quinolin-4-yl]oxyphenyl]cyclopropane-1,1-dicarboxamide]
10 to 100	CN1CCN(c2cc(-c3ccc4c(Oc5ccc(NC(=O)C6(C(=O)Nc7ccc(F)cc7)CC6)cc5)ccnc4c3)ccn2)CC1 [Compound 111, 1-N′-(4-Fluorophenyl)-1-N-[4-[7-[2-(4-methylpiperazin-1-yl)pyridin-4-yl]quinolin-4-yl]oxyphenyl]cyclopropane-1,1-dicarboxamide]
10 to 100	Cc1cc2c(Oc3cc(Cl)c(NC(=O)C4(C(=O)Nc5ccc(F)cc5)CC4)cc3F)ccnc2cc1-c1cnn(C)c1 [Compound 112, 1-N′-[2-Chloro-5-fluoro-4-[6-methyl-7-(1-methylpyrazol-4-yl)quinolin-4-yl]oxyphenyl]-1-N-(4-fluorophenyl)cyclopropane-1,1-dicarboxamide]

Further lines, the compound ahead of its results:

Compound	IC50 [nM]
Cc1cc(-c2ccc3c(Oc4ccc(NC(=O)C5(C(=O)Nc6ccc(F)cc6)CC5)cc4)ccnc3c2)ccn1 [Compound 30, 1-N′-(4-Fluorophenyl)-1-N-[4-[7-(2-methylpyridin-4-yl)quinolin-4-yl]oxyphenyl]cyclopropane-1,1-dicarboxamide]	10 to 100
COc1cc(-c2ccc3c(Oc4ccc(NC(=O)C5(C(=O)Nc6ccc(F)cc6)CC5)cc4)ccnc3c2)ccn1 [Compound 31, 1-N′-(4-Fluorophenyl)-1-N-[4-[7-(2-methoxypyridin-4-yl)quinolin-4-yl]oxyphenyl]cyclopropane-1,1-dicarboxamide]	10 to 100
N#Cc1cncc(-c2ccc3c(Oc4ccc(NC(=O)C5(C(=O)Nc6ccc(F)cc6)CC5)cc4)ccnc3c2)c1 [Compound 40, 1-N-[4-[7-(5-Cyanopyridin-3-yl)quinolin-4-yl]oxyphenyl]-1-N′-(4-fluorophenyl)cyclopropane-1,1-dicarboxamide]	10 to 100
O=C(Nc1ccc(F)cc1)C1(C(=O)Nc2ccc(Oc3ccnc4cc(-c5ccc(F)nc5)ccc34)cc2)CC1 [Compound 41, 1-N′-(4-Fluorophenyl)-1-N-[4-[7-(6-fluoropyridin-3-yl)quinolin-4-yl]oxyphenyl]cyclopropane-1,1-dicarboxamide]	10 to 100
O=C(Nc1ccc(F)cc1)C1(C(=O)Nc2ccc(Oc3ccnc4cc(-c5ccc(O)nc5)ccc34)cc2)CC1 [Compound 51, 1-N′-(4-Fluorophenyl)-1-N-[4-[7-(6-hydroxypyridin-3-yl)quinolin-4-yl]oxyphenyl]cyclopropane-1,1-dicarboxamide]	10 to 100
O=C(Nc1ccc(F)cc1)C1(C(=O)Nc2ccc(Oc3ccnc4cc(-c5cccnc5O)ccc34)cc2)CC1 [Compound 52, 1-N′-(4-Fluorophenyl)-1-N-[4-[7-(2-hydroxypyridin-3-yl)quinolin-4-yl]oxyphenyl]cyclopropane-1,1-dicarboxamide]	100 to 300
O=C(Nc1ccc(F)cc1)C1(C(=O)Nc2ccc(Oc3ccnc4cc(-c5ccc[n+]([O-])c5)ccc34)cc2)CC1 [Compound 109, 1-N′-(4-Fluorophenyl)-1-N-[4-[7-(1-oxidopyridin-1-ium-3-yl)quinolin-4-yl]oxyphenyl]cyclopropane-1,1-dicarboxamide]	10 to 100
Cc1cc2c(Oc3c(F)cc(NC(=O)C4(C(=O)Nc5ccc(F)cc5)CC4)c(F)c3F)ccnc2cc1-c1cnn(C)c1 [Compound 110, 1-N-(4-Fluorophenyl)-1-N′-[2,3,5-trifluoro-4-[6-methyl-7-(1-methylpyrazol-4-yl)quinolin-4-yl]oxyphenyl]cyclopropane-1,1-dicarboxamide]	10 to 100
O=C(Nc1ccc(F)cc1)C1(C(=O)Nc2ccc(Oc3ccnc4cc(-c5cccnc5)ccc34)c(F)c2)CC1 [Compound 113, 1-N-(4-Fluorophenyl)-1-N′-[3-fluoro-4-(7-pyridin-3-ylquinolin-4-yl)oxyphenyl]cyclopropane-1,1-dicarboxamide]	10 to 100
